Reference: PubChem BioAssay AID1963445 (Molecular Pharmacology Branch, DTP, NCI, 2024)

Tested on: MCF7 complex spheroid growth, % test/control
Assay: Anticancer human tumor MCF7 cell line growth inhibition [Asc];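 also: spheroids exposed to compounds for 7 days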;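 as to viability, T/C: 100% = DMSO vehicle control wells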
Conditions: for IC50: curve of first compound; for viability, T/C: stronger effect = lower value
Description: Multicellular complex tumor spheroid response to apoptosis pathway targeting inhibitors Alrizomadlin, Pelcitoclax, and Dasminapant in combination with a variety of drugs and investigational agents in selected tumor cell lines
The MDM2 inhibitor alrizomadlin, the Bcl-2/Bcl-xL inhibitor pelcitoclax, and the IAPs inhibitor dasminapant were evaluated both individually and in combination with standard of care and investigational anticancer small molecules within a complex spheroid model of solid tumors. . Complex spheroids include a stromal component modeled by human endothelial cells (HUVEC) and fibroblasts modeled by human mesenchymal stem cells (MSCs). The concentration ranges selected for each drug and investigational agent were based upon clinically achievable concentrations if the clinical Cmax of the agent was known.
Compounds. The drugs and investigational agents: alrizomadlin (APG-115; NSC831270), pelcitoclax (APG-1252; NSC835773), dasminapant (APG-1387;NSC834197), TAK-243 (NSC785004), copanlisib (NSC809693), olaparib (NSC753686), talazoparib (NSC767125), cobimetinib (NSC 768068), eltanexor (KPT-8602, NSC 794443), abemaciclib (NSC 768073), sotorasib (NSC818433), adagrasib (NSC 831453), MRTX-1133 (NSC 836407), Iadademestat (ORY1001, NSC 806812), and RMC-4630 (NSC839698), were obtained from the NCI Developmental Therapeutics Program Chemical Repository. The FDA-approved anticancer drug set is available from the Developmental Therapeutics Program at https://dtp.cancer.gov/organization/dscb/obtaining/available plates.htm. […] The stock solutions were prepared in dimethyl sulfoxide (DMSO, Sigma-Aldrich, St. Louis, MO, cat. D2650) at 800-fold the tested concentration and stored at -70 degrees C prior to their use. All drugs and investigational agents were tested over a range starting from a high concentration at or near the clinical Cmax and decreasing in half-log increments. If the clinical Cmax for an agent had not been determined, the highest concentration tested was 10 microM.
The patient-derived cancer (PDC) cell lines include five colon adenocarcinomas: 186277-243-T-J2-PDC, 616215-338-R-J1-PDC, 439559-082-T-J2-PDC, 463943-066-T-J2-PDC, and 519858-162-T-J1-PDC; three pancreatic carcinomas: 323965-272-R-J2-PDC, 521955-158-R6-J3-PDC, and 521955-158-R2-J5-PDC; two uterine sarcomas: 327498-152-R-J2-PDC and 993429-296-R-J1-PDC; two rhabdomyosarcomas: 755483-174-R-J1-PDC and 772245-204-R-J1-PDC; two soft tissue sarcomas: 126254-015-R-J1-PDC and 494315-158-R-J1-PDC; two malignant fibrous histiocytomas: 317291-083-R-J1-PDC and 596521-263-R-J1-PDC; two breast carcinomas: 171881-019-R-J1-PDC and 885512-296-R-J2-PDC; and one ovarian carcinoma: 6556581-035-R-J-PDC were obtained from the NCI PDMR, (https://pdmr.cancer.gov). The established cell lines HSSY-2 synovial sarcoma (RRID:CVCL 8719), SYO-1 synovial sarcoma (RRID:CVCL_7146), MPNST malignant peripheral neural sheath tumor were obtained from the Sloan Kettering Institute. The following established cell lines were purchased from the American Type Culture Collection (ATCC, Manassas, VA), Sor the received from the NCI repository:, PANC-1 pancreatic carcinoma (CRL-1469, RRID:CVCL_0480), OVCAR-5 ovarian carcinoma (RRID:CVCL_1628), OVCAR-8 ovarian carcinoma (RRID:CVCL_1629), , MCF-7 breast carcinoma (CRL-12584, RRID:CVCL_0031), MDA-MB-231 breast carcinoma (CRL-12532, RRID:CVCL_0062), NCI-H1876 small cell lung carcinoma (CRL-5902, RRID:CVCL_1503), NCI-H510A small cell lung carcinoma (HTB-184, RRID:CVCL_1565), NCI-H1417 (CRL-5869, RRID:CVCL_1469), and NCI-H196 small cell lung carcinoma (CRL-5823, RRID:CVCL_1509). Dr. Peter Houghton (Greehey Children's Cancer Research Institute, University of Texas Health Science Center, San Antonio, TX) provided Rh-18 rhabdomyosarcoma (RRID:CVCL_1659). Pooled donor human umbilical vein endothelial cells (HUVEC, Lonza, cat. CC-2519) and human mesenchymal stem cells (hMSC, Lonza, cat. PT-2501) were purchased from Lonza (Walkersville, MD).
Cell Culture. […]

[1] = second compound 0.00949 µM, first compound 0.0316 µM
[2] = second compound 0.00949 µM, first compound 0.1 µM
[3] = second compound 0.03 µM, first compound 0.0316 µM
[4] = second compound 0.03 µM, first compound 0.1 µM
[5] = second compound 0.0949 µM, first compound 0.0316 µM
[6] = second compound 0.0949 µM, first compound 0.1 µM
[7] = second compound 0.3 µM, first compound 0.0316 µM
[8] = second compound 0.3 µM, first compound 0.1 µM
[9] = second compound 0.949 µM, first compound 0.0316 µM
[10] = second compound 0.949 µM, first compound 0.1 µM
[11] = second compound 3 µM, first compound 0.0316 µM
[12] = second compound 3 µM, first compound 0.1 µM

`Cn1ncnc1[C@H]1c2n[nH]c(=O)c3cc(F)cc(c23)N[C@@H]1c1ccc(F)cc1` + CCN1C(C(=O)NC23CCC(C(=O)O)(CC2)CC3)C(c2cccc(Cl)c2F)C2(C(=O)Nc3cc(Cl)ccc32)C12CCCCC2 was tested, and the IC50 (second compound 0.00949 µM) was greater than 0.1 µM, the IC50 (second compound 0.03 µM) was greater than 0.1 µM and the IC50 (second compound 0.0949 µM) was 0.00199 µM. The IC50 (second compound 0.3 µM) was less than 0.000316 µM, the IC50 (second compound 0.949 µM) was less than 0.000316 µM and the IC50 (second compound 3 µM) was less than 0.000316 µM. It also gave a viability, T/C (second compound 0.00949 µM, first compound 0.000316 µM) of 121%, a viability, T/C (second compound 0.00949 µM, first compound 0.001 µM) of 98.8% and a viability, T/C (second compound 0.00949 µM, first compound 0.00316 µM) of 116%. For the same compound, the viability, T/C (second compound 0.00949 µM, first compound 0.01 µM) was 73.1%, the viability, T/C [1] was 92.4% and the viability, T/C [2] was 67%. For the same compound, the viability, T/C (second compound 0.03 µM, first compound 0.000316 µM) was 67.4%, the viability, T/C (second compound 0.03 µM, first compound 0.001 µM) was 96.7% and the viability, T/C (second compound 0.03 µM, first compound 0.00316 µM) was 75.8%. It also gave a viability, T/C (second compound 0.03 µM, first compound 0.01 µM) of 77.6%, a viability, T/C [3] of 55.1% and a viability, T/C [4] of 51%. For the same compound, the viability, T/C (second compound 0.0949 µM, first compound 0.000316 µM) was 51.9%, the viability, T/C (second compound 0.0949 µM, first compound 0.001 µM) was 56.7% and the viability, T/C (second compound 0.0949 µM, first compound 0.00316 µM) was 52.3%. It also gave a viability, T/C (second compound 0.0949 µM, first compound 0.01 µM) of 38.8%, a viability, T/C [5] of 37.7% and a viability, T/C [6] of 37%. For the same compound, the viability, T/C (second compound 0.3 µM, first compound 0.000316 µM) was 35.9%, the viability, T/C (second compound 0.3 µM, first compound 0.001 µM) was 29.8% and the viability, T/C (second compound 0.3 µM, first compound 0.00316 µM) was 29.7%. For the same compound, the viability, T/C (second compound 0.3 µM, first compound 0.01 µM) was 32.9%, the viability, T/C [7] was 26.1% and the viability, T/C [8] was 29.1%. The viability, T/C (second compound 0.949 µM, first compound 0.000316 µM) was 21.5%, the viability, T/C (second compound 0.949 µM, first compound 0.001 µM) was 23.1% and the viability, T/C (second compound 0.949 µM, first compound 0.00316 µM) was 16.4%. It also gave a viability, T/C (second compound 0.949 µM, first compound 0.01 µM) of 15.9%, a viability, T/C [9] of 20.8% and a viability, T/C [10] of 18.4%. The viability, T/C (second compound 3 µM, first compound 0.000316 µM) was 15.6%, the viability, T/C (second compound 3 µM, first compound 0.001 µM) was 17.2% and the viability, T/C (second compound 3 µM, first compound 0.00316 µM) was 15.5%. For the same compound, the viability, T/C (second compound 3 µM, first compound 0.01 µM) was 13.1%, the viability, T/C [11] was 13.9% and the viability, T/C [12] was 14.6%.
`O=C(c1cc(Cc2n[nH]c(=O)c3ccccc23)ccc1F)N1CCN(C(=O)C2CC2)CC1` + CCN1C(C(=O)NC23CCC(C(=O)O)(CC2)CC3)C(c2cccc(Cl)c2F)C2(C(=O)Nc3cc(Cl)ccc32)C12CCCCC2 gave an IC50 (second compound 0.00949 µM) greater than 10 µM, an IC50 (second compound 0.03 µM) greater than 10 µM and an IC50 (second compound 0.0949 µM) of less than 0.0316 µM. The IC50 (second compound 0.3 µM) was less than 0.0316 µM, the IC50 (second compound 0.949 µM) was less than 0.0316 µM and the IC50 (second compound 3 µM) was less than 0.0316 µM. For the same compound, the viability, T/C [1] was 133%, the viability, T/C [2] was 96.8% and the viability, T/C (second compound 0.00949 µM, first compound 0.316 µM) was 107%. It also gave a viability, T/C (second compound 0.00949 µM, first compound 1 µM) of 106%, a viability, T/C (second compound 0.00949 µM, first compound 3.16 µM) of 92.3% and a viability, T/C (second compound 0.00949 µM, first compound 10 µM) of 73%. It also gave a viability, T/C [3] of 85.6%, a viability, T/C [4] of 81.5% and a viability, T/C (second compound 0.03 µM, first compound 0.316 µM) of 87%. It also gave a viability, T/C (second compound 0.03 µM, first compound 1 µM) of 86%, a viability, T/C (second compound 0.03 µM, first compound 3.16 µM) of 74.2% and a viability, T/C (second compound 0.03 µM, first compound 10 µM) of 62.2%. It also gave a viability, T/C [5] of 46.7%, a viability, T/C [6] of 47.4% and a viability, T/C (second compound 0.0949 µM, first compound 0.316 µM) of 51.4%. It also gave a viability, T/C (second compound 0.0949 µM, first compound 1 µM) of 45.5%, a viability, T/C (second compound 0.0949 µM, first compound 3.16 µM) of 38.9% and a viability, T/C (second compound 0.0949 µM, first compound 10 µM) of 44.5%. The viability, T/C [7] was 34.3%, the viability, T/C [8] was 30.3% and the viability, T/C (second compound 0.3 µM, first compound 0.316 µM) was 32.8%. For the same compound, the viability, T/C (second compound 0.3 µM, first compound 1 µM) was 30.6%, the viability, T/C (second compound 0.3 µM, first compound 3.16 µM) was 29.4% and the viability, T/C (second compound 0.3 µM, first compound 10 µM) was 29%. It also gave a viability, T/C [9] of 21%, a viability, T/C [10] of 22.7% and a viability, T/C (second compound 0.949 µM, first compound 0.316 µM) of 21.5%. It also gave a viability, T/C (second compound 0.949 µM, first compound 1 µM) of 21.6%, a viability, T/C (second compound 0.949 µM, first compound 3.16 µM) of 25.7% and a viability, T/C (second compound 0.949 µM, first compound 10 µM) of 19.6%. It also gave a viability, T/C [11] of 13.7%, a viability, T/C [12] of 16.2% and a viability, T/C (second compound 3 µM, first compound 0.316 µM) of 14.4%. For the same compound, the viability, T/C (second compound 3 µM, first compound 1 µM) was 14.9%, the viability, T/C (second compound 3 µM, first compound 3.16 µM) was 18.9% and the viability, T/C (second compound 3 µM, first compound 10 µM) was 15.9%.
